Reference: publication PMC10786692 (The Journal of Clinical Investigation, 2024)
Values joined by “and” are separate entries in the source; they are usually repeats but may differ in a detail not shown here. Identical values can stand only once. Like-named read-outs stand apart in the source and are kept apart here.

Tests used:
Type in all cases: in vivo, human
[1] = Plasma pharmacokinetics of ceralasertib (HPLC-MS/MS, NCA); conditions: for half-life: read-out: Mean terminal elimination half-life
Description: Intensive PK sampling in part A occurred after a single dose from predose up to 24 to 72 hours and again at day 15 and day 29 of continuous dosing. Participants fasted for 1 hour before and 2 hours after dosing for PK assessment. In part B, sampling coincided with day 15 PD assessments. Full details are given in Supplemental Methods. […]
Evaluated PK […]
maximum observed plasma concentration (Cmax), time to Cmax (tmax), and apparent terminal half-life (t1/2) calculated as ln/lambda-z where lambda-z (lz) is the apparent terminal phase rate- […]
constant estimated by linear regression of logarithmically-transformed concentration-versus-time data. A minimum of three data points were used in calculating lz as per AstraZeneca standard operating procedures. Data from multiple dosing were used to derive accumulation ratios based on Cmax (Race Cmax) and AUC(0-8) (Rac AUC0-8) defined as the ratio between Cmax or AUC(0-8) after multiple dose and Cmax and AUC(0-8) at day 1. All PK parameters for […]
WinNonLin v8.3 software or higher where the ‘linear up/log down trapezoidal rule’ for AUC was […]
applied. […]

phospho-(S345)Chk1 = experiment: PBMC phospho-Chk1 immunofluorescence; conditions: after 2-week dosing
Description: PD sampling took place at baseline (within 7 days prior to dosing) and between days 15 and 22 of dosing (day 14 for intermittent dosing cohorts). PD samples included PBMCs and tumor biopsies. PBMCs were analyzed by immunofluorescence for γ^(S139)H2AX, p-^(S345)Chk1, and total Chk1, as described in Supplemental Methods. Paired tumor biopsies were formalin fixed and analyzed for nuclear p-^(S635)Rad50 and γH2AX by IHC.
PBMCs were isolated from blood using BD Vacutainer® CPT™ Cell preparation tubes with sodium citrate (BD Biosciences, Wokingham, UK) and fixed with 4% formalin containing 1% Triton™ X-100 (Sigma-Aldrich, St. Louis, MO). […] A Carl Zeiss LSM 700 confocal laser scanning fluorescence microscope (Zeiss, Jena, Germany) was used to visualize and capture images of the PBMCs. Fluorescent nuclear intensity for phospho-(S345) and total Chk1 in individual PBMC cells were quantified using the IN Cell Investigator Developer Toolbox v1.9 software (GE Healthcare Biosciences, Piscataway, NJ). For the phospho(S345)- and total Chk1 assays: the raw data values (fluorescent nuclear intensity for PBMCs), the percentage change for phospho(S345) biomarker was calculated for each subject by comparing the levels measured at each post-dose time point to pre-dose levels measured at baseline. […]
Peripheral blood was drawn into 8 mL EDTA tubes (Vacutainer, BD) and analyzed within 24 hours. […]

tumor biopsies = experiment: CIBERSORTx cell-type deconvolution of tumor biopsy RNA-Seq; conditions: individual patients
Description: signatures for heatmap construction were used from MSigDB (49) and cell-type-related
transcripts from NanoString annotations and Bindea et al (50). Cell-type deconvolution was
performed using CIBERSORTx (51). […]

Compound: C[C@@H]1COCCN1c1cc(C2([S@](C)(=N)=O)CC2)nc(-c2cc[nH]c3nccc2-3)n1 [ceralasertib]
- Plasma concentration, individual patients ([1]; 20 mg day 0, 24 h): 142 ng/mL and 138 ng/mL and 380 ng/mL
- Plasma concentration, individual patients ([1]; 20 mg day 1, 24 h): 632 ng/mL and 586 ng/mL and 929 ng/mL
- Plasma concentration, individual patients ([1]; 40 mg day 0, 0 h, in ng/mL): 0
- Plasma concentration, individual patients ([1]; 40 mg day 0, 0.5 h): 760 ng/mL and 1280 ng/mL and 301 ng/mL
- Plasma concentration, individual patients ([1]; 40 mg day 0, 1 h): 1150 ng/mL and 2230 ng/mL and 1660 ng/mL
- Plasma concentration, individual patients ([1]; 40 mg day 0, 2 h): 1660 ng/mL and 1430 ng/mL
- Plasma concentration, individual patients ([1]; 40 mg day 0, 4 h): 1330 ng/mL and 1170 ng/mL
- Plasma concentration, individual patients ([1]; 40 mg day 0, 8 h): 894 ng/mL and 668 ng/mL
- Plasma concentration, individual patients ([1]; 40 mg day 0, 24 h): 226 ng/mL and 224 ng/mL
- Plasma concentration, individual patients ([1]; 40 mg day 1, 0.5 h): 1850 ng/mL and 634 ng/mL and 1990 ng/mL
- Plasma concentration, individual patients ([1]; 40 mg day 1, 1 h): 1440 ng/mL and 1570 ng/mL
- Plasma concentration, individual patients ([1]; 40 mg day 1, 2 h): 2060 ng/mL and 1610 ng/mL
- Plasma concentration, individual patients ([1]; 40 mg day 1, 4 h): 1500 ng/mL and 1300 ng/mL
- Plasma concentration, individual patients ([1]; 40 mg day 1, 8 h): 1190 ng/mL and 822 ng/mL
- Plasma concentration, individual patients ([1]; 40 mg day 1, 24 h): 1220 ng/mL and 677 ng/mL
- Plasma concentration, individual patients ([1]; 80 mg day 0, 0 h, in ng/mL): 0
- Plasma concentration, individual patients ([1]; 80 mg day 0, 0.5 h): 0 ng/mL
- Plasma concentration, individual patients ([1]; 80 mg day 0, 2 h): 2900 ng/mL and 1130 ng/mL and 2000 ng/mL and 4130 ng/mL and 1950 ng/mL and 3230 ng/mL
- Plasma concentration, individual patients ([1]; 80 mg day 0, 4 h): 2010 ng/mL and 3030 ng/mL and 1520 ng/mL
- Plasma concentration, individual patients ([1]; 80 mg day 0, […], in ng/mL): 0
- Plasma concentration, individual patients ([1]; 80 mg day 1, 0.5 h): 2360 ng/mL and 757 ng/mL and 378 ng/mL and 2950 ng/mL and 1020 ng/mL and 1250 ng/mL
- Plasma concentration, individual patients ([1]; 80 mg day 1, 1 h): 4420 ng/mL and 1340 ng/mL and 816 ng/mL and 2960 ng/mL and 939 ng/mL and 2250 ng/mL
- Plasma concentration, individual patients ([1]; 80 mg day 1, 2 h): 3650 ng/mL and 1700 ng/mL and 1500 ng/mL and 2460 ng/mL and 1310 ng/mL and 2040 ng/mL
- Plasma concentration, individual patients ([1]; 80 mg day 1, 4 h): 3230 ng/mL and 1160 ng/mL and 3200 ng/mL
- Oral absorption ([1]; all doses, single and multiple dose): rapidly orally absorbed
- concentration at 0 h ([1]; human, plasma, oral, 20 mg, 20 mg day 0, 0 h, read-out: Plasma concentration, individual patients): 0 ng/mL
- concentration at 4 h ([1]; human, plasma, oral, 20 mg, 20 mg day 0, 4 h, read-out: Plasma concentration, individual patients): 885 ng/mL
- concentration at 8 h ([1]; human, plasma, oral, 20 mg, 20 mg day 0, 8 h, read-out: Plasma concentration, individual patients): 562 ng/mL
- concentration at 2 h ([1]; human, plasma, oral, 20 mg, 20 mg day 1, 2 h, read-out: Plasma concentration, individual patients): 757 ng/mL
- concentration at 4 h ([1]; human, plasma, oral, 20 mg, 20 mg day 1, 4 h, read-out: Plasma concentration, individual patients): 1020 ng/mL
- concentration at 8 h ([1]; human, plasma, oral, 20 mg, 20 mg day 1, 8 h, read-out: Plasma concentration, individual patients): 618 ng/mL
- concentration at 2 h ([1]; human, plasma, oral, 40 mg, 40 mg day 0, 2 h, read-out: Plasma concentration, individual patients): 2220 ng/mL
- concentration at 4 h ([1]; human, plasma, oral, 40 mg, 40 mg day 0, 4 h, read-out: Plasma concentration, individual patients): 1450 ng/mL
- concentration at 8 h ([1]; human, plasma, oral, 40 mg, 40 mg day 0, 8 h, read-out: Plasma concentration, individual patients): 1010 ng/mL
- concentration at 24 h ([1]; human, plasma, oral, 40 mg, 40 mg day 0, 24 h, read-out: Plasma concentration, individual patients): 203 ng/mL
- concentration at 1 h ([1]; human, plasma, oral, 40 mg, 40 mg day 1, 1 h, read-out: Plasma concentration, individual patients): 2490 ng/mL
- concentration at 2 h ([1]; human, plasma, oral, 40 mg, 40 mg day 1, 2 h, read-out: Plasma concentration, individual patients): 2290 ng/mL
- concentration at 4 h ([1]; human, plasma, oral, 40 mg, 40 mg day 1, 4 h, read-out: Plasma concentration, individual patients): 1640 ng/mL
- concentration at 8 h ([1]; human, plasma, oral, 40 mg, 40 mg day 1, 8 h, read-out: Plasma concentration, individual patients): 996 ng/mL
- concentration at 24 h ([1]; human, plasma, oral, 40 mg, 40 mg day 1, 24 h, read-out: Plasma concentration, individual patients): 1150 ng/mL
- concentration at 0 h ([1]; human, plasma, oral, 80 mg, 80 mg day 0, 0 h, read-out: Plasma concentration, individual patients): 0 ng/mL
- concentration at […] ([1]; human, plasma, oral, 80 mg, 80 mg day 0, […], read-out: Plasma concentration, individual patients): 0 ng/mL
- concentration at 0 h ([1]; human, plasma, oral, 160 mg, 160 mg day 0, 0 h, read-out: Plasma concentration, individual patients): 0 ng/mL
- concentration at 0 h ([1]; human, plasma, oral, 240 mg, 240 mg day 0, 0 h, read-out: Plasma concentration, individual patients): 0 ng/mL
- concentration at 8 h ([1]; human, plasma, oral, 240 mg, 240 mg day 0, 8 h, read-out: Plasma concentration, individual patients): 4640 ng/mL
- concentration at 12 h ([1]; human, plasma, oral, 240 mg, 240 mg day 0, read-out: Plasma concentration, individual patients): 4200 ng/mL
- concentration at 0 h ([1]; human, plasma, oral, 240 mg, 240 mg day 15, 0 h, read-out: Plasma concentration, individual patients): 8530 ng/mL
- concentration at 0.5 h ([1]; human, plasma, oral, 240 mg, 240 mg day 15, 0.5 h, read-out: Plasma concentration, individual patients): 13500 ng/mL
- concentration at 1 h ([1]; human, plasma, oral, 240 mg, 240 mg day 15, 1 h, read-out: Plasma concentration, individual patients): 17000 ng/mL
- concentration at 4 h ([1]; human, plasma, oral, 240 mg, 240 mg day 15, 4 h, read-out: Plasma concentration, individual patients): 13500 ng/mL
- concentration at 8 h ([1]; human, plasma, oral, 240 mg, 240 mg day 15, 8 h, read-out: Plasma concentration, individual patients): 10200 ng/mL
- concentration at 12 h ([1]; human, plasma, oral, 240 mg, 240 mg day 15, read-out: Plasma concentration, individual patients): 9080 ng/mL
- concentration at […] ([1]; human, plasma, oral, 240 mg, 240 mg day 15, […], read-out: Plasma concentration, individual patients): 11200 ng/mL
- half-life ([1]; human, plasma, oral, 40 and 80 mg dose levels): 5.3 to 7.7 h
- half-life ([1]; human, plasma, oral, 160 and 240 mg dose levels): 11.2 to 12.8 h
- Tmax ([1]; human, plasma, oral, all doses, single and multiple dose, read-out: Median time to peak drug concentration (tmax)): 0.5 to 4 h
- Exposure versus dose ([1]; single dosing, 80 to 240 mg): increased approximately proportionally
- p-Chk1 levels in PBMCs with treatment (phospho-(S345)Chk1): not consistent
- CIBERSORTx proportion CD8, on-treatment tumor biopsy (tumor biopsies; D15 PR): 0
- CIBERSORTx proportion M0 Mac, on-treatment tumor biopsy (tumor biopsies; D15 PR): 0.1391 and 0.5318 and 0.5438
- CIBERSORTx proportion M1 Mac, on-treatment tumor biopsy (tumor biopsies; D15 PR): 0.1372 and 0 (2×)
- CIBERSORTx proportion M2 Mac, on-treatment tumor biopsy (tumor biopsies; D15 PR): 0.1138 and 0.03909 and 0.06393
- CIBERSORTx proportion Naive B, on-treatment tumor biopsy (tumor biopsies; D15 PR): 0.01104 and 0.04034 and 0
- CIBERSORTx proportion Naive CD4, on-treatment tumor biopsy (tumor biopsies; D15 PR): 0 and 0.0004844 and 0.004743
- CIBERSORTx proportion Neutrophils, on-treatment tumor biopsy (tumor biopsies; D15 PR): 0.03549 and 0.1415 and 0.09333
- CIBERSORTx proportion Treg, on-treatment tumor biopsy (tumor biopsies; D15 PR): 0
- CIBERSORTx proportion active DC, on-treatment tumor biopsy (tumor biopsies; D15 PR): 0.02084 and 0.01306 and 0.1026
- CIBERSORTx proportion active NK, on-treatment tumor biopsy (tumor biopsies; D15 PR): 0.09471 and 0 (2×)
- CIBERSORTx proportion resting DC, on-treatment tumor biopsy (tumor biopsies; D15 PR): 0
- CIBERSORTx proportion resting NK, on-treatment tumor biopsy (tumor biopsies; D15 PR): 0 and 0.07254 and 0.04433
- CIBERSORTx proportion CD8, on-treatment tumor biopsy (tumor biopsies; D15 non-PR): 0 (3×) and 0.09128
- CIBERSORTx proportion M0 Mac, on-treatment tumor biopsy (tumor biopsies; D15 non-PR): 0.07738 and 0.2479 and 0.5291 and 0.2524
- CIBERSORTx proportion M1 Mac, on-treatment tumor biopsy (tumor biopsies; D15 non-PR): 0 (2×) and 0.002883 and 0.04168
- CIBERSORTx proportion M2 Mac, on-treatment tumor biopsy (tumor biopsies; D15 non-PR): 0.325 and 0.00838 and 0.1257 and 0.0276
- CIBERSORTx proportion Naive B, on-treatment tumor biopsy (tumor biopsies; D15 non-PR): 0 (2×) and 0.07794 and 0.002559
- CIBERSORTx proportion Naive CD4, on-treatment tumor biopsy (tumor biopsies; D15 non-PR): 0
- CIBERSORTx proportion Neutrophils, on-treatment tumor biopsy (tumor biopsies; D15 non-PR): 0 (2×) and 0.09632 and 0.04836
- CIBERSORTx proportion Treg, on-treatment tumor biopsy (tumor biopsies; D15 non-PR): 0 (2×) and 0.01681 and 0.03886
- CIBERSORTx proportion active DC, on-treatment tumor biopsy (tumor biopsies; D15 non-PR): 0.01626 and 0.04266 and 0 (2×)
- CIBERSORTx proportion active NK, on-treatment tumor biopsy (tumor biopsies; D15 non-PR): 0.08744 and 0 (2×) and 0.005269
- CIBERSORTx proportion resting DC, on-treatment tumor biopsy (tumor biopsies; D15 non-PR): 0 (3×) and 0.002776
- CIBERSORTx proportion resting NK, on-treatment tumor biopsy (tumor biopsies; D15 non-PR): 0 and 0.1019 and 0.06313 and 0.04038
